# Measured values: patent US20210236442A1, “METHODS FOR DELAYING OCCURRENCE OF NEW-ONSET TYPE 2 DIABETES AND FOR SLOWING PROGRESSION OF AND TREATING TYPE 2 DIABETES” (Dalcor Pharma UK Ltd., Leatherhead, Zug Branch, priority 2018, published 2021)
# Assays:
# Assay type in all cases: in vivo, human
# [1] = system: patients enrolled in the dal-OUTCOMES trial; assay: Cox proportional hazards regression of SNP rs1967309 for association with cardiovascular events per treatment arm (dal-OUTCOMES); details: for Event (cardiovascular events): 600 mg dalcetrapib arm; for HR (rs1967309, cardiovascular events) / β genetic (rs1967309, cardiovascular events): dalcetrapib arm
# Text: Inclusion Criteria: Patients 45 years of age or older who provided written informed consent were eligible to participate if they had been hospitalized for an acute coronary syndrome characterized by elevated cardiac biomarkers, with symptoms of acute myocardial ischemia, ischemic electrocardiographic abnormalities that were new or presumed to be new, or loss of viable myocardium on imaging. Patients without elevated cardiac biomarkers were eligible to participate if symptoms of acute myocardial ischemia were accompanied by electrocardiographic changes that were new or presumed to be new and by additional evidence of obstructive coronary disease. […] However, no specific statin agent or dose was specified, and patients were not excluded if their LDL cholesterol level remained above 100 mg per deciliter. There were no exclusions on the basis of patients' HDL cholesterol level. […] The patients began a single-blind placebo-based run-in period of approximately 4 to 6 weeks to allow for patients to stabilize and for completion of any planned revascularization procedures. At the end of the run-in period, patients in stable condition were randomized in a 1:1 ratio to 600 mg of dalcetrapib or placebo on top of evidence-based medical care for acute cardiovascular syndrome (“ACS”). The descriptive statistics and analyses were performed using SAS 9.4 software.
# Cox proportional hazards regression of single nucleotide polymorphism (“SNP”) rs1967309 was conducted for association with cardiovascular events in each treatment arm and in patients with a diagnosis of diabetic at baseline in the dal-OUTCOMES trial and in non-diabetic patients separately without controlling for any covariate, as shown in Table 4. Cox proportional hazards regression of SNP rs1967309 was conducted for association with cardiovascular events in each treatment arm and in diabetic and non-diabetic patients separately controlling for age and sex, as shown in Table 5.
# [2] = system: patients enrolled in the dal-OUTCOMES trial; assay: Cox proportional hazards regression of diabetes for association with cardiovascular events per rs1967309 genotype and treatment arm (dal-OUTCOMES); details: for Event (cardiovascular events) / HR (diabetes, cardiovascular events) / β diabetes (cardiovascular events): dalcetrapib arm
# Text: Inclusion Criteria: Patients 45 years of age or older who provided written informed consent were eligible to participate if they had been hospitalized for an acute coronary syndrome characterized by elevated cardiac biomarkers, with symptoms of acute myocardial ischemia, ischemic electrocardiographic abnormalities that were new or presumed to be new, or loss of viable myocardium on imaging. Patients without elevated cardiac biomarkers were eligible to participate if symptoms of acute myocardial ischemia were accompanied by electrocardiographic changes that were new or presumed to be new and by additional evidence of obstructive coronary disease. […] However, no specific statin agent or dose was specified, and patients were not excluded if their LDL cholesterol level remained above 100 mg per deciliter. There were no exclusions on the basis of patients' HDL cholesterol level. […] The patients began a single-blind placebo-based run-in period of approximately 4 to 6 weeks to allow for patients to stabilize and for completion of any planned revascularization procedures. At the end of the run-in period, patients in stable condition were randomized in a 1:1 ratio to 600 mg of dalcetrapib or placebo on top of evidence-based medical care for acute cardiovascular syndrome (“ACS”). The descriptive statistics and analyses were performed using SAS 9.4 software. […]
# [3] = system: patients of the dal-OUTCOMES trial; assay: Repeated measures mixed regression of treatment arm for HbA1c, all patients and per genotype (Example 2); details: all patients combined and each rs1967309 genotype; with and without covariates
# Protocol: The effect of dalcetrapib on whole-blood HbA1c levels irrespective of genotype and the impact of dalcetrapib on risk of new onset diabetes were retrospectively assessed in patients of the dal-OUTCOMES trial. The descriptive statistics and analyses were performed using SAS 9.4 software.
# [4] = system: patients of the dal-OUTCOMES trial; assay: Cox proportional hazards regression of dalcetrapib treatment arm for association with new onset diabetes
# Protocol: The effect of dalcetrapib on whole-blood HbA1c levels irrespective of genotype and the impact of dalcetrapib on risk of new onset diabetes were retrospectively assessed in patients of the dal-OUTCOMES trial. The descriptive statistics and analyses were performed using SAS 9.4 software. Diabetes at baseline was defined based on at least one of the following patient criteria: (1) diagnosis of diabetics at baseline in the dal-OUTCOMES trial; (2) whole-blood HbA1c level>=6.5% at baseline; (3) fasting glucose level>=7.0 mmol/L at baseline; and (4) use of diabetes medication at or before baseline. New onset diabetes was defined in non-diabetic patients at baseline based on at least one of the following patient criteria: (1) adverse event (AE) preferred terms “type 2 diabetes mellitus” OR “diabetes mellitus” from the AE file that occurred after randomization; (2) use of diabetes medication that was initiated after randomization; (2) at least one whole-blood HbA1c measurement of >=6.5% after randomization; and (4) at least one fasting glucose measurement of >=126 mg/dl or >=7.0 mmol/L after randomization. Cox proportional hazards regression of dalcetrapib treatment arm for association with new onset diabetes was assessed. There were 598 (14%) new onset diabetes cases in the 4173 non-diabetics at baseline.
# [5] = diabetic patients, controlling for age and sex
# [6] = diabetic patients, no covariate
# [7] = non-diabetic patients, controlling for age and sex
# [8] = non-diabetic patients, no covariate
# [9] = rs1967309 AA, controlling for age and sex
# [10] = rs1967309 AG, controlling for age and sex
# [11] = rs1967309 GG, controlling for age and sex
smiles,measurement,setting,value
CCC(CC)CC1(C(=O)Nc2ccccc2SC(=O)C(C)C)CCCCC1 [dalcetrapib],SNP rs1967309 as predictor of cardiovascular events in the dalcetrapib arm,"[1]; diabetic and non-diabetic patients, with and without covariates, significance level of 5%",predictive of cardiovascular events
same,Event (cardiovascular events),"[1]; diabetic patients, Table 4",134
same,Event (cardiovascular events),"[1]; diabetic patients, Table 5",134
same,"HR (rs1967309, cardiovascular events)",[1]; [5],0.6631
same,"β genetic (rs1967309, cardiovascular events)",[1]; [5],−0.4108
same,"HR (rs1967309, cardiovascular events)",[1]; [6],0.6597
same,"β genetic (rs1967309, cardiovascular events)",[1]; [6],−0.4159
same,Event (cardiovascular events),"[1]; non-diabetic patients, Table 4",255
same,Event (cardiovascular events),"[1]; non-diabetic patients, Table 5",255
same,"HR (rs1967309, cardiovascular events)",[1]; [7],0.6366
same,"β genetic (rs1967309, cardiovascular events)",[1]; [7],−0.4516
same,"HR (rs1967309, cardiovascular events)",[1]; [8],0.6400
same,"β genetic (rs1967309, cardiovascular events)",[1]; [8],−0.4462
same,effect of dalcetrapib on cardiovascular events,[2]; AA patients with diabetes,cardiovascular protective effect
same,Event (cardiovascular events),"[2]; rs1967309 AA, Table 6",37
same,Event (cardiovascular events),"[2]; rs1967309 AA, Table 7",37
same,"HR (diabetes, cardiovascular events)",[2]; [9],1.6850
same,β diabetes (cardiovascular events),[2]; [9],0.5218
same,"HR (diabetes, cardiovascular events)","[2]; rs1967309 AA, no covariate",1.4330
same,β diabetes (cardiovascular events),"[2]; rs1967309 AA, no covariate",0.3597
same,Event (cardiovascular events),"[2]; rs1967309 AG, Table 6",176
same,Event (cardiovascular events),"[2]; rs1967309 AG, Table 7",176
same,"HR (diabetes, cardiovascular events)",[2]; [10],2.2217
same,β diabetes (cardiovascular events),[2]; [10],0.7983
same,"HR (diabetes, cardiovascular events)","[2]; rs1967309 AG, no covariate",2.3398
same,β diabetes (cardiovascular events),"[2]; rs1967309 AG, no covariate",0.8501
same,Event (cardiovascular events),"[2]; rs1967309 GG, Table 6",176
same,Event (cardiovascular events),"[2]; rs1967309 GG, Table 7",176
same,"HR (diabetes, cardiovascular events)",[2]; [11],1.6913
same,β diabetes (cardiovascular events),[2]; [11],0.5255
same,"HR (diabetes, cardiovascular events)","[2]; rs1967309 GG, no covariate",1.7772
same,β diabetes (cardiovascular events),"[2]; rs1967309 GG, no covariate",0.5750
same,dalcetrapib treatment arm as predictor of HbA1c,[3],significant predictor of reduced HbA1c
same,effect of dalcetrapib on new onset diabetes,[4]; non-diabetic patients at baseline,trend for a protective effect
same,association of new onset diabetes with dalcetrapib treatment arm,"[4]; non-diabetic patients at baseline, all combined and each genotype, P<0.05, with and without covariates",not found to be significantly associated
same,association with treatment arm,"[4]; patients with diabetes at baseline and AA genotype, with and without covariates, patients with events n=27",significant association with treatment arm
